From ChEMBL document CHEMBL4765295, “Synthesis, pharmacological profile and 2D-QSAR studies of curcumin-amino acid conjugates as potential drug candidates” (Eur J Med Chem, 2020)
In brackets after ≈: the same amount, converted by molar mass. Several values for one entry are separate records, joined by “and”; a condition that tells them apart may be missing. Equal entries are not always repeated.

Key:
Rattus norvegicus [1] = experiment: Anti-inflammatory activity in Wistar rat assessed as inhibition of carrageenan-induced paw edema at 10 mg/kg, ip pretreated for 1 hr followed by carrageenan challenge and measured after 3 hr relative to control (reference value: 0.00 +/-0.1 %); type: functional; conditions: time 4 hrs
Rattus norvegicus [2] = experiment: Antiinflammatory activity in Wistar rat model of carrageenan-induced paw edema assessed as reduction in thickness of paw edema at 10 mg/kg, ip pretreated for 1 hr followed by carrageenan challenge and measured after 1 hr (reference value: 2.41 +/-0.05 mm); type: functional; conditions: time 1 hr after carrageenan
Rattus norvegicus [3] = experiment: Anti-inflammatory activity in Wistar rat assessed as inhibition of carrageenan-induced paw edema at 10 mg/kg, ip pretreated for 1 hr followed by carrageenan challenge and measured after 4 hr relative to control (reference value: 0.00 +/-0.4 %); type: functional; conditions: time 5 hrs
Candida albicans = experiment: Antifungal activity against Candida albicans incubated for 18 to 24 hrs by CLSI method; type: functional; conditions: time 18-24 hrs
Rattus norvegicus [4] = experiment: Anti-inflammatory activity in Wistar rat assessed as inhibition of carrageenan-induced paw edema at 10 mg/kg, ip pretreated for 1 hr followed by carrageenan challenge and measured after 4 hr relative to indomethacin; type: functional; conditions: time 5 hrs
Rattus norvegicus [5] = experiment: Antiinflammatory activity in Wistar rat model of carrageenan-induced paw edema assessed as reduction in thickness of paw edema at 10 mg/kg, ip pretreated for 1 hr followed by carrageenan challenge and measured after 2 hrs (reference value: 2.06 +/-0.09 mm); type: functional; conditions: time 3 hrs
Splenocyte [6] = experiment: Immunomodulatory activity in Swiss albino mouse splenocytes assessed as cell viability at 10 uM by measuring inhibition of stimulation index incubated for 72 hrs in presence of mitogenic stimulus phytohaemagglutinin by MTT assay relative to indomethacin; type: functional; conditions: read-out: Activity
Splenocyte [7] = experiment: Immunomodulatory activity in Swiss albino mouse splenocytes assessed as cell viability at 10 uM by measuring stimulation index incubated for 72 hrs in presence of mitogenic stimulus phytohaemagglutinin by MTT assay (reference value: 1.00 +/- 0.24); type: functional
Rattus norvegicus [8] = experiment: Anti-inflammatory activity in Wistar rat assessed as inhibition of carrageenan-induced paw edema at 10 mg/kg, ip pretreated for 1 hr followed by carrageenan challenge and measured after 1 hr relative to control (reference value: 0.00 +/-0.02 %); type: functional; conditions: time 2 hrs
Rattus norvegicus [9] = experiment: Anti-inflammatory activity in Wistar rat assessed as inhibition of carrageenan-induced paw edema at 10 mg/kg, ip pretreated for 1 hr followed by carrageenan challenge and measured after 2 hr relative to control (reference value: 0.00 +/-0.03 %); type: functional; conditions: time 3 hrs
Rattus norvegicus [10] = experiment: Antiinflammatory activity in Wistar rat model of carrageenan-induced paw edema assessed as reduction in thickness of paw edema at 10 mg/kg, ip pretreated for 1 hr followed by carrageenan challenge and measured after 4 hrs (reference value: 1.40 +/-0.10 mm); type: functional; conditions: time 5 hrs
Staphylococcus aureus = experiment: Antibacterial activity against Staphylococcus aureus ATCC 25923 incubated for 18 hrs by agar dilution method; type: functional
Streptococcus pyogenes = experiment: Antibacterial activity against Streptococcus pyogenes ATCC 19615 incubated for 18 hrs by agar dilution method; type: functional
Rattus norvegicus [11] = experiment: Anti-inflammatory activity in Wistar rat assessed as inhibition of carrageenan-induced paw edema at 10 mg/kg, ip pretreated for 1 hr followed by carrageenan challenge and measured after 24 hr relative to control (reference value: 0.00 +/-0.3 %); type: functional; conditions: time 25 hrs
Rattus norvegicus [12] = experiment: Antiinflammatory activity in Wistar rat model of carrageenan-induced paw edema assessed as reduction in thickness of paw edema at 10 mg/kg, ip pretreated for 1 hr followed by carrageenan challenge and measured after 24 hrs (reference value: 0.83 +/-0.08 mm); type: functional; conditions: time 25 hrs
Salmonella typhimurium = experiment: Antibacterial activity against Salmonella typhimurium ATCC 19430 incubated for 18 hrs by agar dilution assay; type: functional, Salmonella enterica subsp. enterica serovar Typhimurium; conditions: Salmonella enterica
Rattus norvegicus [13] = experiment: Antiinflammatory activity in Wistar rat model of carrageenan-induced paw edema assessed as reduction in thickness of paw edema at 10 mg/kg, ip pretreated for 1 hr followed by carrageenan challenge and measured after 3 hrs (reference value: 1.79 +/-0.07 mm); type: functional; conditions: time 4 hrs
Pseudomonas aeruginosa = experiment: Antibacterial activity against Pseudomonas aeruginosa ATCC 27853 incubated for 18 hrs by agar dilution assay; type: functional
Peritoneal macrophage [14] = experiment: Antiinflammatory activity in […] mouse Peritoneal macrophages assessed as inhibition of LPS-induced NO production at 10 uM preincubated for 1 hr followed by LPS stimulation measured after 24 hrs by Griess method relative to control (reference value: 0.0 %); type: functional; set-up: scale not given: the % may be the effect or the level left; conditions: time 25 hrs
Peritoneal macrophage [15] = experiment: Antiinflammatory activity in […] mouse Peritoneal macrophages assessed as reduction in LPS-induced NO production by measuring reduction in stimulation index at 10 uM preincubated for 1 hr followed by LPS stimulation measured after 24 hrs by Griess method (reference value: 27.31 +/- 2.56 uM); type: functional; conditions: time 25 hrs

MIC (Candida albicans) | MIC (Staphylococcus aureus) | MIC (Streptococcus pyogenes) | MIC (Salmonella typhimurium) | MIC (Pseudomonas aeruginosa) | SMILES | inhibition in vivo at 10 mg/kg (Rattus norvegicus [1]) [%] | Activity (Rattus norvegicus [2]) [mm] | inhibition in vivo at 10 mg/kg (Rattus norvegicus [3]) [%] | inhibition in vivo at 10 mg/kg (Rattus norvegicus [4]) [%] | Activity (Rattus norvegicus [5]) [mm] | viability at 10 µM (Splenocyte [6]) [%] | Activity_index (Splenocyte [7]) | inhibition in vivo at 10 mg/kg (Rattus norvegicus [8]) [%] | inhibition in vivo at 10 mg/kg (Rattus norvegicus [9]) [%] | Activity (Rattus norvegicus [10]) [mm] | inhibition in vivo at 10 mg/kg (Rattus norvegicus [11]) [%] | Activity (Rattus norvegicus [12]) [mm] | Activity (Rattus norvegicus [13]) [mm] | Activity (Peritoneal macrophage [14]) [%] | Activity (Peritoneal macrophage [15]) [µM]
0.5 µg/mL and 0.56 µM | 0.5 µg/mL and 0.56 µM | 0.125 µg/mL and 0.14 µM | 0.5 µg/mL and 0.56 µM | 1 µg/mL and 1.12 µM | COc1cc(/C=C/C(=O)/C=C(O)/C=C/c2ccc(OC(=O)[C@H](CCC(N)=O)NC(=O)OCc3ccccc3)c(OC)c2)ccc1OC(=O)[C@H](CCC(N)=O)NC(=O)OCc1ccccc1 | 45 | 1.18 | 44 | 51 | 1.09 | 51.1 | 2.37 | 51 | 47 | 0.78 | 4 | 0.8 | 0.99 |  | 
2 µg/mL and 2.57 µM | 0.25 µg/mL and 0.321 µM | 0.125 µg/mL and 0.161 µM | 0.5 µg/mL and 0.642 µM | 2 µg/mL and 2.57 µM | COc1cc(/C=C/C(=O)/C=C(O)/C=C/c2ccc(OC(=O)[C@H](C)NC(=O)OCc3ccccc3)c(OC)c2)ccc1OC(=O)[C@H](C)NC(=O)OCc1ccccc1 | 22 | 1.05 | 12 | 14 | 1.59 | 44.9 | 2.7 | 56 | 23 | 1.23 | 0 | 0.83 | 1.4 | 8.86 | 24.89
2 µg/mL and 2.15 µM | 0.125 µg/mL and 0.134 µM | 0.125 µg/mL and 0.134 µM | 0.125 µg/mL and 0.134 µM | 0.25 µg/mL and 0.269 µM | COc1cc(/C=C/C(=O)/C=C(O)/C=C/c2ccc(OC(=O)[C@H](Cc3ccccc3)NC(=O)OCc3ccccc3)c(OC)c2)ccc1OC(=O)[C@H](Cc1ccccc1)NC(=O)OCc1ccccc1 | 9 | 1 | 5 | 6 | 1.56 | 41.5 | 2.91 | 59 | 24 | 1.38 | 1 | 0.82 | 1.63 | 3.6 | 26.33
0.5 µg/mL and 0.666 µM | 0.125 µg/mL and 0.166 µM | 0.125 µg/mL and 0.166 µM | 0.5 µg/mL and 0.666 µM | 1 µg/mL and 1.33 µM | COc1cc(/C=C/C(=O)/C=C(O)/C=C/c2ccc(OC(=O)CNC(=O)OCc3ccccc3)c(OC)c2)ccc1OC(=O)CNC(=O)OCc1ccccc1 | 37 | 0.87 | 34 | 39 | 1.41 | 45.8 | 2.64 | 64 | 32 | 0.92 | 0 | 0.83 | 1.13 | 10.11 | 24.55
0.5 µg/mL and 0.579 µM | 0.125 µg/mL and 0.145 µM | 0.125 µg/mL and 0.145 µM | 0.25 µg/mL and 0.29 µM | 0.125 µg/mL and 0.145 µM | COc1cc(/C=C/C(=O)/C=C(O)/C=C/c2ccc(OC(=O)[C@H](CC(C)C)NC(=O)OCc3ccccc3)c(OC)c2)ccc1OC(=O)[C@H](CC(C)C)NC(=O)OCc1ccccc1 | 10 | 1.59 | 11 | 13 | 1.85 | 42.8 | 2.83 | 34 | 10 | 1.25 | 1 | 0.82 | 1.61 | 4.57 | 26.06
1 µg/mL and 1.16 µM | 0.25 µg/mL and 0.29 µM | 0.125 µg/mL and 0.145 µM | 0.25 µg/mL and 0.29 µM | 1 µg/mL and 1.16 µM | COc1cc(/C=C/C(=O)/C=C(O)/C=C/c2ccc(OC(=O)[C@H](Cc3ccccc3)NC(=O)OC(C)(C)C)c(OC)c2)ccc1OC(=O)[C@H](Cc1ccccc1)NC(=O)OC(C)(C)C | 53 | 1.47 | 59 | 68 | 1.16 | 47.2 | 2.56 | 39 | 44 | 0.58 | 51 | 0.41 | 0.85 |  | 
1 µg/mL and 1.2 µM | 0.125 µg/mL and 0.15 µM | 0.5 µg/mL and 0.599 µM | 0.125 µg/mL and 0.15 µM | 0.25 µg/mL and 0.299 µM | COc1cc(/C=C/C(=O)/C=C(O)/C=C/c2ccc(OC(=O)[C@@H](NC(=O)OCc3ccccc3)C(C)C)c(OC)c2)ccc1OC(=O)[C@@H](NC(=O)OCc1ccccc1)C(C)C | 19 | 1.17 | 12 | 14 | 1.65 | 42.1 | 2.87 | 51 | 20 | 1.23 | 2 | 0.81 | 1.45 | 5.68 | 25.76
 |  |  | 2.4 µg/mL (≈ 7.24 µM) | 4.8 µg/mL (≈ 14.5 µM) | O=C(O)c1cn(C2CC2)c2cc(N3CCNCC3)c(F)cc2c1=O [CIPROFLOXACIN] |  |  |  |  |  |  |  |  |  |  |  |  |  |  | 

SMILES | MIC (Candida albicans) | MIC (Staphylococcus aureus) | MIC (Streptococcus pyogenes) | MIC (Salmonella typhimurium) | MIC (Pseudomonas aeruginosa) | inhibition in vivo at 10 mg/kg (Rattus norvegicus [1]) [%] | Activity (Rattus norvegicus [2]) [mm] | inhibition in vivo at 10 mg/kg (Rattus norvegicus [3]) [%] | inhibition in vivo at 10 mg/kg (Rattus norvegicus [4]) [%] | Activity (Rattus norvegicus [5]) [mm] | viability at 10 µM (Splenocyte [6]) [%] | Activity_index (Splenocyte [7]) | inhibition in vivo at 10 mg/kg (Rattus norvegicus [8]) [%] | inhibition in vivo at 10 mg/kg (Rattus norvegicus [9]) [%] | Activity (Rattus norvegicus [10]) [mm] | inhibition in vivo at 10 mg/kg (Rattus norvegicus [11]) [%] | Activity (Rattus norvegicus [12]) [mm] | Activity (Rattus norvegicus [13]) [mm] | Activity (Peritoneal macrophage [14]) [%] | Activity (Peritoneal macrophage [15]) [µM]
C[C@@H]1[C@H](O)[C@@H](C)/C=C/C=C/C=C/C=C/C=C/C=C/C=C/[C@H](O[C@@H]2O[C@H](C)[C@@H](O)[C@H](N)[C@@H]2O)C[C@@H]2O[C@](O)(C[C@@H](O)C[C@@H](O)[C@H](O)CC[C@@H](O)C[C@@H](O)CC(=O)O[C@H]1C)C[C@H](O)[C@H]2C(=O)O [AMPHOTERICIN B] | 0.39 µg/mL and 0.422 µM |  |  |  |  |  |  |  |  |  |  |  |  |  |  |  |  |  |  | 
CCn1cc(C(=O)O)c(=O)c2cc(F)c(N3CCNCC3)cc21 [NORFLOXACIN] |  |  |  | 2.4 µg/mL (≈ 7.52 µM) | 4.8 µg/mL and 15000 µM |  |  |  |  |  |  |  |  |  |  |  |  |  |  | 
